In paper PMC5379102, “Sequence-selective encapsulation and protection of long peptides by a self-assembled Fe^II8L6 cubic cage” (Nature Communications, 2017):
“Also recorded” adds a separate entry of the source. Where two headings read alike, the source gives them in different places. Each block holds one compound with its values, some of them ahead of it. Non-standard residues stand in square brackets, D forms with d. Residues, ends and D or L forms follow the SMILES beside them. No end group written: not given here. *: point of attachment. Dnp = O=[N+]([O-])c1ccc(*)c([N+](=O)[O-])c1; 2Abz = Nc1ccccc1C(=O)O

Legend:
[1] = target: cage 1 (Fe^II8L6 cubic cage with zinc porphyrin faces); experiment: Ultraviolet-visible titration of cage 1 with guest (host-guest binding)
Description: Ultraviolet–visible absorption spectroscopy measurements were performed using a Perkin Elmer Lambda 750 UV-Vis-NIR spectrophotometer fitted with a PTP-1 Peltier temperature controller accessory. Spectra were obtained in double beam mode using only the (front) analyte beam to record spectra, with air in the (rear) reference path. Samples were analysed using quartz cuvettes with optical path lengths of 1 mm. Unless otherwise specified, 417 nm was the wavelength selected to follow the binding of the guest.
A solution of 1 in CH3CN:H2O (1:1) (250 μl, 1.5 μM) or pure acetonitrile was transferred to a cuvette. Small aliquots of the guest's solution were titrated into the cuvette. The experiment was performed at room temperature. Each experiment was repeated three times (Supplementary Figs 31–46 and Supplementary Methods). Data obtained from the ultraviolet–visible titration were then fitted using nonlinear analysis with DynaFit programme (Biokin Software)[30] to the binding equation derived for either 1:1 model (porphyrin:guest with one imidazole group) or 2:1 model (porphyrin:guest with two imidazole groups), except in the case of G7. G7 contains two histidine amino acids in consecutive positions, therefore the distance between the imidazole rings of these two amino acids is too short to allow the interaction with two porphyrins at the same time. In this case, the binding model was 2:1 peptide:cage.
The dilution effect was corrected by multiplying the observe intensity for the dilution factor before the fitting. The error reported for each affinity value is the formal standard error calculated by DynaFit[30] as the square root of the diagonal elements of the variance–covariance matrix. This s.e. gives an idea of the precision of the fitted value.
The experimental data obtained using UV-Vis spectroscopy for each guest was fitted using
nonlinear analysis with DynaFit program (Biokin Software)2 to the binding equation derived
for 1:1 model porphyrin:imidazole group (non-cooperative model). […]

[2] = test system: cage 1 (Fe^II8L6 cubic cage with zinc porphyrin faces); experiment: Host-guest chemistry studied by 1H NMR titration; type: binding; settings: shifts of β-pyrrolic protons of 1
Excerpt: We used 1-methylimidazole (G1) as an initial probe, following its binding by ^1H NMR spectroscopy. Due to the large cavity, only slight upfield shifts of the signals of the β-pyrrolic protons of 1 were observed following the addition of G1. […] However, when a 1:1 mixture of water:acetonitrile was used, it was necessary to add 70 equivalents to achieve saturation (Supplementary Fig. 27). We infer the weaker interaction in the presence of water to be due to competing hydrogen bonding between water and imidazole.
A solution of 1 (0.5 ml) was prepared in a mixture of CD3CN:D2O (1:1) or in pure CD3CN and was transferred to a J-Young NMR tube. Aliquots of the guest were added in the same mixture of solvents. The NMR spectrum was recorded after each addition and the sample was mixed thoroughly before each measurement (Supplementary Figs 26–30).

trypsin = experiment: Trypsinization experiments (peptide hydrolysis by trypsin, with or without 1); type: in vitro ADME
Description: (§1) Finally, we envisaged that the closed cubic architecture of 1 could protect its histidine-containing peptide guests from enzymatic degradation. For these experiments we used the protease trypsin, which cleaves exclusively on the C-terminal side of lysine and arginine residues. We initially examined G7 as a substrate. […] The incubation of a 20 μM solution of G8 with 0.3 equiv. of trypsin in a mixture of acetonitrile and phosphate buffer (pH=7.5) for 30 min led to the cleavage of G8 in 76% yield (Supplementary Fig. 49). When the same reaction was run in the presence of 0.6 equiv. of 1 (2:1 binding stoichiometry), the extent of cleavage was only 9% (Supplementary Fig. 50). The low degree of enzymatic degradation observed is consistent with the 9 μM dissociation constant of the adduct between 1 and G8, which implies the presence of a small amount of free peptide under the reaction conditions. Importantly, when the same experiment was carried out with a non-binding G9 in place of G8, with or without 1, quantitative G9 cleavage was observed (Supplementary Figs 52 and 53). In a further test, we treated a mixture of both peptides and 1 with trypsin, and incubated the mixture under identical conditions. In this case almost complete selectivity was observed.
(§2) Trypsinization reactions were followed by analytical RP-HPLC with an Agilent 1,100 series LC using an Eclipse XDB-C18 analytical column (3 × 150 mm, 3.5 μm). Standard conditions for analytical RP-HPLC consisted on a linear gradient from 0 to 10% of solvent B in 5 min, it then increased from 10 to 70% in 30 min at a flow rate of 1.0 ml min^−1 (A: water with 0.1% trifluoroacetic acid (TFA), B: acetonitrile with 0.1% TFA); 55 μl of solution was injected to the column each time. Compounds were detected by ultraviolet absorption and subsequently characterized by electrospray ionization (ESI) (Supplementary Figs 48–56).
(§3) The samples were prepared in 200 μl solution (40% CH3CN, 50% phosphate buffer and 10% H2O; phosphate buffer: 0.1 M, pH 7.5, 0.2 M NaCl). The concentration of the solution components were: peptides (G8 and G9) 20 μM, trypsin 6 μM and 1 12 μM. However, not all components were present in each sample, as noted in the main text. The reaction mixtures were stirred at room temperature for 30 min. It was observed that longer reaction times cause degradation of 1 due to the high concentration of NaCl in the phosphate buffer. After this time, H2O (200 μl) and acetic acid (8 μl) were added to quench the reaction. In the case of the control experiments with free Zn porphyrins, the concentration of the porphyrin was 72 μM.

[3] = as above; type: in vitro ADME; settings: isolated enzyme trypsin; peptide 20 μM, trypsin 6 μM (0.3 equiv.), 40% CH3CN / 50% phosphate buffer (0.1 M, pH 7.5, 0.2 M NaCl) / 10% H2O, room temperature, 30 min, RP-HPLC UV; read-out: cleavage by trypsin, single peptide, no 1
Description: as §1, §2, §3

Solubility observations = type: physicochemical
Description: In a J-Young NMR tube porphyrin A (4 mg, 3.3 μmol, 6 equiv.; Supplementary Figs 1–4 and Supplementary Methods), iron(II) triflate (1.5 mg, 4.4 μmol, 8 equiv.) and 5,6,7,8-tetrahydronaphthalen-2-amine B (1.9 mg, 13 μmol, 24 equiv.) were suspended in [D7]DMF (400 μl) and [D3]MeCN (100 μl). The solution was deoxygenated by three freeze-pump-thaw cycles, the tube was sealed, and heated in the oil bath for 8 h at 70 °C. After this time, the solution was opened to air and cooled to room temperature. […] The suspension was centrifuged and the solvent above the solid was removed. The purple solid was washed twice with chloroform (3 ml) and partially dried under nitrogen. The solid was dissolved in acetonitrile (0.5 ml) after drying with nitrogen. 1 (Supplementary Figs 5–12) was not soluble in pure water, but it is soluble in a 1:1 acetonitrile:water mixture (1 mg ml^−1).

[4] = 1:1 acetonitrile:water, 20 °C, 1 at 1.5 μM, UV-Vis at 417 nm, non-cooperative 1:1 imidazole (or thiazole):porphyrin model, except G7 (2:1 peptide:1), DynaFit fit, ± formal standard error, repeated three times, read-out: Kd (μM) in CD3CN:H2O (1:1)
[5] = 1:1 acetonitrile:water, 20 °C, 1 at 1.5 μM, UV-Vis at 417 nm, non-cooperative 1:1 imidazole (or thiazole):porphyrin model, except G7 (2:1 peptide:1), DynaFit fit, ± formal standard error, repeated three times
[6] = peptide 20 μM, trypsin 6 μM, 1 12 μM, 40% CH3CN / 50% phosphate buffer (0.1 M, pH 7.5, 0.2 M NaCl) / 10% H2O, room temperature, 30 min, RP-HPLC UV

Compound: CC[C@H](C)[C@H](NC(=O)[C@@H](N)CCC(=O)O)C(=O)N[C@@H](CC(C)C)C(=O)N[C@@H](CC(=O)O)C(=O)N[C@H](C(=O)N1CCC[C@H]1C(=O)N[C@@H](CO)C(=O)N[C@H](C(=O)O)[C@@H](C)O)C(C)C [Guest G10, H2N-E-I-L-D-V-P-S-T-OH]
Kd (μM) in CD3CN:H2O (1:1) [1, 5]: no binding interaction; also recorded: not observed to interact

Compound: H-SSWGHVGKYVHGWSHVS-OH [Guest G8]
Kd [1, 4]: 9 ± 2 µM | times lower affinity than G7 ([1]; in 1:1 acetonitrile:water): 100 | metabolised at 0.5 h [3]: 76% | yield of cleavage by trypsin, mixture of G8 and G9, 0.6 equiv of 1 (trypsin; both peptides 20 μM, trypsin 6 μM, 1 12 μM, 40% CH3CN / phosphate buffer pH 7.5, room temperature, 30 min, RP-HPLC UV): 11% | cleavage by trypsin, single peptide, in the presence of 0.6 equiv. of 1 (trypsin; [6]): 9%

Compound: tetrakis(formylpyridine)porphyrin A
solubility in water or acetonitrile (Solubility observations; in either water or acetonitrile): not observed to dissolve

Further lines, with some results ahead:

Kd [1, 4]: 900 ± 70 µM | Kd ([1]; pure acetonitrile, 20 °C, 1 at 1.5 μM, UV-Vis at 417 nm, non-cooperative 1:1 imidazole:porphyrin model, DynaFit fit, ± formal standard error, repeated three times, read-out: Kd (μM) in CD3CN): 30 ± 1 µM
Compound: Cn1ccnc1 [Guest G1, 1-methylimidazole]
equivalents of guest at saturation (1H NMR) ([2]; in 1:1 water:acetonitrile): 70 equivalents | equivalents of guest at saturation (1H NMR) ([2]; in acetonitrile): seven

hydrolysis by trypsin in the presence of free Zn porphyrin (trypsin; free A or water-soluble Zn-tetrakis(4-sulfonatophenyl)porphyrin 72 μM, peptide 20 μM, trypsin 6 μM, pH 7.5, 30 min): unaffected | cleavage by trypsin, single peptide, no 1 (trypsin; peptide 20 μM, trypsin 6 μM (0.3 equiv.), 40% CH3CN / 50% phosphate buffer (0.1 M, pH 7.5, 0.2 M NaCl) / 10% H2O, room temperature, 30 min, RP-HPLC UV): quantitative | cleavage by trypsin, single peptide, in the presence of 0.6 equiv. of 1 (trypsin; [6]): quantitative
Compound: CC[C@H](C)[C@H](NC(=O)CNC(=O)c1ccccc1N)C(=O)N[C@H](C(=O)N[C@@H](CCCNC(=N)N)C(=O)N[C@@H](C)C(=O)N[C@@H](CCCCNc1ccc([N+](=O)[O-])cc1[N+](=O)[O-])C(=O)O)C(C)C [Guest G9, Abz-NH-G-I-V-R-A-K(Dnp)-OH] (H-[2Abz]GIVRAK(Dnp)-OH)
Kd (μM) in CD3CN:H2O (1:1) [1, 5]: no binding interaction; also recorded: not observed to interact

Kd [1, 4]: 1000 ± 200 µM
Compound: c1cscn1 [thiazole]

equivalents of guest that saturate the cage (UV-Vis) ([1]; 1:1 CH3CN:H2O, 20 °C, 1 at 1.5 µM (G7 3 µM)): two | Kd ([1]; 1:1 CH3CN:H2O, 20 °C, 1 at 1.5 µM (Supplementary Figure 43), 2:1 peptide:1 model, read-out: Kd, titration at 1.5 µM cage): 0.06 ± 0.05 µM | Kd [1, 4]: 0.08 ± 0.02 µM | solubility at neutral pH (Solubility observations; trypsinization conditions): low solubility
Compound: VFQFLGKIIHHVGNFVHGFSHVF [Guest G7, Clavanin A]
